Measured values published in ChEMBL document CHEMBL1201862, “PubChem BioAssay data set” (2004).
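96-well plates; 48 h exposure; 5 concentrations. Endpoints by linear interpolation between flanking doses. Not reached: highest tested concentration assigned. At the GI50, growth is halved.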 The source made the active and inactive calls. No stated cut-off is given here; in the data, active = GI50 up to about 1.1 µM and inactive = higher.

Legend:
Test in all cases: NCI tumour cell line growth inhibition, 48 h
NCI-H460 = tested on: NCI-H460
HCT-116 = tested on: HCT-116
OVCAR-3 = tested on: OVCAR-3
KM12 = tested on: KM12
LOX IMVI = tested on: LOX IMVI
A549 = tested on: A549
UACC-257 = tested on: UACC-257
HT-29 = tested on: HT-29
CCRF-CEM = tested on: CCRF-CEM
UO-31 = tested on: UO-31
A498 = tested on: A498
SR = tested on: SR
U-251 = tested on: U-251
MOLT-4 = tested on: MOLT-4
HCC 2998 = tested on: HCC 2998
SF-295 = tested on: SF-295
NCI-H522 = tested on: NCI-H522
M14 = tested on: M14
HOP-92 = tested on: HOP-92

Measured: GI50

CC(=O)OCC1OC(SC2OC(COC(C)=O)C(OC(C)=O)C(OC(C)=O)C2OC(C)=O)C(OC(C)=O)C(OC(C)=O)C1OC(C)=O (configuration not stated)
inactive: NCI-H460 > 100 µM | HCT-116 > 100 µM | OVCAR-3 > 100 µM | KM12 > 100 µM | LOX IMVI > 100 µM | A549 > 100 µM | UACC-257 > 100 µM | HT-29 > 100 µM | CCRF-CEM > 100 µM | UO-31 > 100 µM | A498 54.1 µM | SR > 100 µM | U-251 > 100 µM | MOLT-4 > 100 µM | HCC 2998 > 100 µM | SF-295 > 100 µM

CC(=O)OC1COC(N2C(=O)/C(=N\Nc3ccc([N+](=O)[O-])cc3)c3cc(Br)c([N+](=O)[O-])cc32)C(OC(C)=O)C1OC(C)=O (configuration not stated)
inactive: NCI-H522 24.1 µM | NCI-H460 > 100 µM | HCT-116 44.6 µM | OVCAR-3 > 100 µM | KM12 27.9 µM | LOX IMVI 51.1 µM | A549 > 100 µM | UACC-257 > 100 µM | HT-29 74.5 µM | CCRF-CEM 61.5 µM | SR 98.9 µM | U-251 36.8 µM | M14 55.8 µM | HOP-92 8.26 µM | MOLT-4 > 100 µM | HCC 2998 > 100 µM | SF-295 21.4 µM

Cc1ccc(S(=O)OCc2c(C)c(C)c(COS(=O)c3ccc(C)cc3)c(C)c2C)cc1 (configuration not stated)
inactive: NCI-H522 > 100 µM | NCI-H460 > 100 µM | HCT-116 > 100 µM | OVCAR-3 > 100 µM | KM12 > 100 µM | LOX IMVI > 100 µM | A549 > 100 µM | UACC-257 > 100 µM | HT-29 > 100 µM | UO-31 > 100 µM | A498 > 100 µM | SR > 100 µM | U-251 > 100 µM | M14 > 100 µM | HOP-92 > 100 µM | MOLT-4 > 100 µM | HCC 2998 > 100 µM | SF-295 > 100 µM

Oc1ccc(-c2nc3cc(F)ccc3s2)cc1
inactive: NCI-H522 15.3 µM | NCI-H460 19.3 µM | HCT-116 17.5 µM | OVCAR-3 19.2 µM | KM12 20.5 µM | LOX IMVI 17.9 µM | A549 18.4 µM | UACC-257 27.4 µM | HT-29 23.3 µM | CCRF-CEM 43.8 µM | UO-31 19.3 µM | SR 2.38 µM | U-251 19.9 µM | M14 20 µM | HOP-92 21.3 µM | MOLT-4 10.4 µM | HCC 2998 13.5 µM | SF-295 19.6 µM

C[P+](C)(CC(F)(F)F)c1ccccc1
inactive: NCI-H522 > 100 µM | NCI-H460 > 100 µM | HCT-116 > 100 µM | OVCAR-3 > 100 µM | KM12 > 100 µM | LOX IMVI > 100 µM | A549 > 100 µM | UACC-257 > 100 µM | HT-29 > 100 µM | CCRF-CEM > 100 µM | UO-31 > 100 µM | A498 > 100 µM | SR > 100 µM | U-251 > 100 µM | M14 > 100 µM | MOLT-4 > 100 µM | HCC 2998 > 100 µM | SF-295 > 100 µM

CNC(=O)CN(CC(=O)O)C(=O)NC
inactive: NCI-H522 > 100 µM | OVCAR-3 > 100 µM | KM12 > 100 µM | LOX IMVI > 100 µM | A549 > 100 µM | UACC-257 > 100 µM | HT-29 > 100 µM | CCRF-CEM > 100 µM | UO-31 > 100 µM | A498 > 100 µM | SR > 100 µM | U-251 > 100 µM | M14 > 100 µM | HOP-92 > 100 µM | MOLT-4 > 100 µM | HCC 2998 > 100 µM | SF-295 > 100 µM

O=c1[nH]c(=O)n(COCc2ccccc2)c2ccc([N+](=O)[O-])cc12
inactive: HCT-116 > 100 µM | OVCAR-3 > 100 µM | KM12 > 100 µM | LOX IMVI > 100 µM | A549 > 100 µM | UACC-257 > 100 µM | HT-29 > 100 µM | CCRF-CEM > 100 µM | UO-31 > 100 µM | A498 > 100 µM | SR > 100 µM | U-251 > 100 µM | M14 > 100 µM | HOP-92 > 100 µM | MOLT-4 > 100 µM | HCC 2998 > 100 µM | SF-295 > 100 µM

N#CCN1CCOCCOCCN(CC#N)CCOCCOCC1
inactive: NCI-H460 > 100 µM | HCT-116 > 100 µM | OVCAR-3 > 100 µM | LOX IMVI > 100 µM | A549 > 100 µM | UACC-257 > 100 µM | HT-29 > 100 µM | CCRF-CEM > 100 µM | UO-31 > 100 µM | A498 > 100 µM | SR > 100 µM | M14 > 100 µM | HOP-92 > 100 µM | MOLT-4 > 100 µM | HCC 2998 > 100 µM | SF-295 > 100 µM

CN1CCN(CN2C(=O)C3C4C=CC(C3C2=O)C2C3C(=O)N(CN5CCN(C)CC5)C(=O)C3C42)CC1 (configuration not stated)
inactive: NCI-H460 16.1 µM | HCT-116 16.5 µM | OVCAR-3 21.4 µM | KM12 20.1 µM | LOX IMVI 17.9 µM | A549 32.4 µM | HT-29 33.4 µM | CCRF-CEM 29.2 µM | UO-31 30.3 µM | A498 93.1 µM | SR 16.4 µM | U-251 20.8 µM | M14 16.4 µM | MOLT-4 22.2 µM | HCC 2998 34.7 µM

O=S1(=O)OCCOS(=O)(=O)C1S(=O)(=O)c1ccc2ccccc2c1
inactive: NCI-H460 > 100 µM | HCT-116 > 100 µM | OVCAR-3 > 100 µM | KM12 > 100 µM | LOX IMVI > 100 µM | A549 > 100 µM | UACC-257 > 100 µM | HT-29 > 100 µM | CCRF-CEM > 100 µM | UO-31 > 100 µM | SR > 100 µM | U-251 > 100 µM | M14 > 100 µM | HOP-92 > 100 µM | MOLT-4 > 100 µM | HCC 2998 > 100 µM | SF-295 > 100 µM

C#CC1/C(=C\C(=O)OC)CCCC1O (configuration not stated)
inactive: NCI-H522 > 100 µM | NCI-H460 > 100 µM | HCT-116 > 100 µM | OVCAR-3 > 100 µM | KM12 > 100 µM | A549 > 100 µM | UACC-257 > 100 µM | HT-29 > 100 µM | CCRF-CEM > 100 µM | UO-31 > 100 µM | A498 > 100 µM | SR > 100 µM | U-251 > 100 µM | M14 > 100 µM | HOP-92 > 100 µM | MOLT-4 > 100 µM | HCC 2998 > 100 µM | SF-295 > 100 µM
